# Source: patent US8716242B2, “β-hairpin peptidomimetics” (priority 2009, dated 2014)
# Where two headings read alike, the source gives them in different places. Bridge positions count the residues as written; N and C are the ends. Square brackets hold non-standard residues; d marks the D form. Peptide text beside a SMILES is read from it. * marks the point of attachment. Gly(Dodecyl) = CCCCCCCCCCCC[C@H](N)C(=O)O; Octyloxycarbonyl = CCCCCCCCOC(=O)*; Stearoyl = CCCCCCCCCCCCCCCCCC(=O)*; Myristoyl = CCCCCCCCCCCCCC(=O)*; Lauroyl = CCCCCCCCCCCC(=O)*; Decanoyl = CCCCCCCCCC(=O)*; Octanoyl = CCCCCCCC(=O)*; Dab = NCC[C@H](N)C(=O)O
# Key:
# [1] = target: T1, human CXCR4 (Homo sapiens, UniProt P61073); assay: Ca2+-assay: CXCR4-antagonizing activity (SDF-1 induced calcium mobilization); format: cell-based
# T1 construct: expressed in transfected cells; host or cells: mouse pre-B cell line 300-19
# Excerpt: 2.3. Ca^2+-Assay: CXCR4-Antagonizing Activity of the Peptides
# Increases in intracellular calcium were monitored using a Flexstation 384 (Molecular Devices, Sunnyvale, Calif.) to assay the peptides for CXCR4 antagonism in a mouse pre-B cell line 300-19 stably transfected with human CXCR4 (E. Oberlin, A. Amara, F. Bachelerie, C. Bessia, J.-L. Virelizier, F. Arenzana-Seisdedos, O, Schwartz, J.-M. Heard, I. Clark-Lewis, D. F. Legler, M. Loetscher, M. Baggiolini, B. Moser, Nature 1996, 382, 833-835; M. Loetscher, T. Geiser, T. O'Reilly, R. Zwalen, M. Baggiolini, B. Moser, J. Biol. Chem. 1994, 269, 232-237; M. D'Apuuo, A. Rolink, M. Loetscher, J. A. Hoxie, I. Clark-Lewis, F. Melchors, M. Baggiolini, B. Moser, Eur. J. Immunol. 1997, 27, 1788-1793). The cells were batch loaded with the Calcium 4 Assay kit (Molecular Devices) in assay buffer (Hanks Balanced salt solution [HBSS], 20 mM HEPES, pH 7.4, 0.1% BSA) for 1 h at room temperature and labeled cells were dispensed into black well assays plates (Costar No. 3603). Calcium mobilization induced by stromal-derived factor-1 (SDF-1) was measured in the Flexstation 384 (excitation: 485 nm; emission: 525 nm) for 90 seconds. Antagonist activity of peptides was determined by spiking the cells with compounds prior to SDF-1 addition. Dose response curves (compound concentration versus % maximum response for SDF-1) were determined for each antagonist and IC50 values were calculated by fitting the data to a four parameter logistic equation using SoftmaxPro 4.8 (Molecular Devices).
# [2] = Cytotoxicity, MTT reduction assay, HELA cells; format: cell-based; settings: human, HELA cells (Acc57), 12.5-50 μM
# In short: (§1)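 HELA (4000/well) and COS-7 (3400/well) cells were grown 24 h, then exposed 48 h at 37° C to peptides at 12.5, 25 and 50 μM in triplicate. MTT reduction read at 595 nm; growth % relative to time-zero, and GI50 interpolated by trend line.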
# [3] = Cytotoxicity, MTT reduction assay, COS-7 cells; format: cell-based; settings: African green monkey, COS-7 cells (CRL-1651), 12.5-50 μM
# In short: as §1
# [4] = tested on: human red blood cells (hRBC); assay: Hemolysis of human red blood cells; format: cell-based; settings: 20% hRBC, 1 h, 37° C.
# Procedure: The peptides were tested for their hemolytic activity against human red blood cells (hRBC). Fresh hRBC were washed three times with phosphate buffered saline (PBS) and centrifuged for 10 min at 2000×g. Compounds (100 μM) were incubated with 20% hRBC (v/v) for 1 h at 37° C. and shaking at 300 rpm. The final erythrocyte concentration was approximately 0.9×10^9 cells/mL. A value of 0% and 100% cell lyses, respectively, was determined by incubation of hRBC in the presence of PBS containing 0.001% acetic acid and 2.5% Triton X-100 in H2O, respectively. The samples were centrifuged, the supernatants were 8-fold diluted in PBS buffer and the optical densities (OD) were measured at 540 nm. The 100% lyses value (OD540H2O) gave an OD540 of approximately 0.5-1.0.
# Percent hemolysis was calculated as follows: (OD540peptide/OD540H2O)×100%. 2.6. Plasma Stability
# [5] = Plasma stability in human plasma; format: in vitro ADME; settings: human plasma, 37° C.; for remaining at 24 h, 10 μM: 1440 min, read-out: human pl. cpd left at 1440 min; for human pl. T1/2: up to 1440 min
# In short: (§2)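 Peptides (1 mM DMSO/H2O stock) were spiked into human or mouse plasma in triplicate and incubated at 37 °C, sampling from 0 to 1440 min. Samples were quenched in formic acid/acetonitrile and analysed by LC/MS MRM. Remaining percent of t=0 was calculated and T1/2 derived by trend fitting.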
# [6] = Plasma stability in mouse plasma; format: in vitro ADME; settings: mouse plasma, 37° C.; for remaining at 24 h, 10 μM: 1440 min, read-out: mouse pl. cpd left at 1440 min; for mouse pl. T1/2 / half-life at 10 μM: up to 1440 min; for half-life at 10 μM: read-out: mouse pl. T1/2
# In short: as §2
# [7] = mouse pre-B cell line 300-19 transfected with human CXCR4, SDF-1 induced Ca2+ mobilization, read-out: IC50% [nM] ± SD, CXCR4 receptor
# T1 sequence (P61073 whole entry): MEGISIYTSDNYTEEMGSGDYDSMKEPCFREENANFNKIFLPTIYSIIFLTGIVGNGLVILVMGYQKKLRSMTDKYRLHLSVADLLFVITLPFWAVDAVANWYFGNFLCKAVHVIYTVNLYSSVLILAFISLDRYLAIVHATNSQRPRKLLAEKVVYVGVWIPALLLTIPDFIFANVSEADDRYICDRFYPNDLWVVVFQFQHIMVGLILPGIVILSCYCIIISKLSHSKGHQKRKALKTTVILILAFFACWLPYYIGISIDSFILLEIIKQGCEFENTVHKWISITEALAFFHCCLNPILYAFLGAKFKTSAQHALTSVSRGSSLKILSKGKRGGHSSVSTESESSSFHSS
SMILES,"IC50 [1, 7]",GI50 at 48 h [2],GI50 at 48 h [3],Hemolysis at 100 μM [4],"remaining at 24 h, 10 μM [5]",human pl. T1/2 [5],"remaining at 24 h, 10 μM [6]",mouse pl. T1/2 [6],IC50 [1],half-life at 10 μM [6]
CCCCCCCCCCCCCCCCCC(=O)NCCCC[C@@H]1NC(=O)[C@H](Cc2ccc(O)cc2)NC(=O)[C@@H]2CSSC[C@H](NC(=O)[C@H](Cc3ccc(O)cc3)NC(=O)[C@H](Cc3c[nH]cn3)NC(=O)[C@H](Cc3ccc(O)cc3)NC(=O)[C@@H]3CCCN3C(=O)[C@H]3CCCN3C(=O)[C@H](CCCCN)NC1=O)C(=O)N[C@@H](CO)C(=O)N[C@@H](C)C(=O)N1CCC[C@@H]1C(=O)N[C@@H](CCN)C(=O)N[C@@H](CCCNC(=N)N)C(=O)N[C@@H](Cc1ccc(O)cc1)C(=O)N2 [Ex. 22] (cyclo(YHYCSA[dP][Dab]RYCYK(Stearoyl)K[dP]P); disulfide 4-11),7.3 ± 3 nM,> 35 µM,> 50 µM,9.6%,72%,24 h,82%,24 h,,
CCCCCCCCCCCC(=O)NCC[C@@H]1NC(=O)[C@H]2CCCN2C(=O)[C@H](C)NC(=O)[C@H](CCCNC(=N)N)NC(=O)[C@@H]2CSSC[C@H](NC(=O)[C@H](Cc3ccc(O)cc3)NC(=O)[C@H](CCCNC(=N)N)NC1=O)C(=O)N[C@@H](Cc1ccc(O)cc1)C(=O)N[C@@H](CCC(N)=O)C(=O)N[C@@H](CCCCN)C(=O)N1CCC[C@@H]1C(=O)N1CCC[C@H]1C(=O)N[C@@H](Cc1ccc(O)cc1)C(=O)N[C@@H](Cc1c[nH]cn1)C(=O)N[C@@H](C)C(=O)N2 [Ex. 5] (cyclo(YHACRA[dP][Dab](Lauroyl)RYCYQK[dP]P); disulfide 4-11),,> 50 µM,> 43 µM,0.3%,100%,24 h,73%,24 h,95.5 ± 12 nM,
CCCCCCCC(=O)NCCCC[C@@H]1NC(=O)[C@H](Cc2c[nH]cn2)NC(=O)[C@H](Cc2ccc(O)cc2)NC(=O)[C@@H]2CCCN2C(=O)[C@H]2CCCN2C(=O)[C@H](CCCCN)NC(=O)[C@H](CCC(N)=O)NC(=O)[C@H](Cc2ccc(O)cc2)NC(=O)[C@@H]2CSSC[C@H](NC1=O)C(=O)N[C@@H](CO)C(=O)N[C@@H](C)C(=O)N1CCC[C@@H]1C(=O)N[C@@H](CCN)C(=O)N[C@@H](CCCNC(=N)N)C(=O)N[C@@H](Cc1ccc(O)cc1)C(=O)N2 [Ex. 3] (cyclo(YHK(Octanoyl)CSA[dP][Dab]RYCYQK[dP]P); disulfide 4-11),19.4 ± 13 nM,> 45 µM,> 50 µM,0.6%,86%,24 h,86%,24 h,,
CCCCCCCCCC(=O)NCCCC[C@@H]1NC(=O)[C@H](Cc2ccc(O)cc2)NC(=O)[C@@H]2CSSC[C@H](NC(=O)[C@H]([C@@H](C)O)NC(=O)[C@H](Cc3c[nH]cn3)NC(=O)[C@H](Cc3ccc(O)cc3)NC(=O)[C@@H]3CCCN3C(=O)[C@H]3CCCN3C(=O)[C@H](CCCCN)NC1=O)C(=O)N[C@@H](CCCNC(=N)N)C(=O)N[C@@H](C)C(=O)N[C@H](Cc1ccc(O)cc1)C(=O)N[C@@H](CCN)C(=O)N[C@@H](CCCNC(=N)N)C(=O)N[C@@H](Cc1ccc(O)cc1)C(=O)N2 [Ex. 14] (cyclo(YHTCRA[dY][Dab]RYCYK(Decanoyl)K[dP]P); disulfide 4-11),40.8 ± 12 nM,> 50 µM,> 50 µM,0.6%,91%,24 h,23%,,,9.42 h
CCCCCCCCCCCC[C@@H]1NC(=O)[C@H](Cc2c[nH]cn2)NC(=O)[C@H](Cc2ccc(O)cc2)NC(=O)[C@@H]2CCCN2C(=O)[C@H]2CCCN2C(=O)[C@H](CCCCN)NC(=O)[C@H](CCC(N)=O)NC(=O)[C@H](Cc2ccc(O)cc2)NC(=O)[C@@H]2CSSC[C@H](NC1=O)C(=O)N[C@@H](CCCNC(=N)N)C(=O)N[C@@H](C)C(=O)N1CCC[C@@H]1C(=O)N[C@@H](CCN)C(=O)N[C@@H](CCCNC(=N)N)C(=O)N[C@@H](Cc1ccc(O)cc1)C(=O)N2 [Ex. 2] (cyclo(YH[Gly(Dodecyl)]CRA[dP][Dab]RYCYQK[dP]P); disulfide 4-11),55.8 ± 6 nM,> 13 µM,> 32 µM,1.7%,96%,24 h,62%,,,23.4 h
CCCCCCCCCCCCCC(=O)NCCCC[C@@H]1NC(=O)[C@H](Cc2ccc(O)cc2)NC(=O)[C@@H]2CSSC[C@H](NC(=O)[C@H](Cc3ccc(O)cc3)NC(=O)[C@H](Cc3c[nH]cn3)NC(=O)[C@H](Cc3ccc(O)cc3)NC(=O)[C@@H]3CCCN3C(=O)[C@H]3CCCN3C(=O)[C@H](CCCCN)NC1=O)C(=O)N[C@@H](CO)C(=O)N[C@@H](C)C(=O)N1CCC[C@@H]1C(=O)N[C@@H](CCN)C(=O)N[C@@H](CCCNC(=N)N)C(=O)N[C@@H](Cc1ccc(O)cc1)C(=O)N2 [Ex. 18] (cyclo(YHYCSA[dP][Dab]RYCYK(Myristoyl)K[dP]P); disulfide 4-11),15.7 ± 3.9 nM,> 25 µM,> 50 µM,9.2%,71%,24 h,78%,24 h,,
CCCCCCCCOC(=O)NC(=N)NCCC[C@@H]1NC(=O)[C@H](CCN)NC(=O)[C@H]2CCCN2C(=O)[C@H](C)NC(=O)[C@H](CO)NC(=O)[C@@H]2CSSC[C@H](NC(=O)[C@H](Cc3ccc(O)cc3)NC1=O)C(=O)N[C@@H](Cc1ccc(O)cc1)C(=O)N[C@@H](CCC(N)=O)C(=O)N[C@@H](CCCCN)C(=O)N1CCC[C@@H]1C(=O)N1CCC[C@H]1C(=O)N[C@@H](Cc1ccc(O)cc1)C(=O)N[C@@H](Cc1c[nH]cn1)C(=O)N[C@@H](Cc1ccc(O)cc1)C(=O)N2 [compound 6] (cyclo(YHYCSA[dP][Dab]R(Octyloxycarbonyl)YCYQK[dP]P); disulfide 4-11),28.5 ± 9 nM,> 10 µM,> 35 µM,0.7%,76%,24 h,92%,24 h,,
